Consider 1 molecule from patent EP1019392B1, “TRICYCLIC AMIDES USEFUL FOR INHIBITION OF G-PROTEIN FUNCTION AND FOR TREATMENT OF PROLIFERATIVE DISEASES” (SCHERING CORPORATION, priority 1995, dated 1997).

The subject of assay [1] is Ras-CVLS processing in COS monkey kidney cells. As to the kind of experiment: COS cell assay: inhibition of Ras-CVLS processing (Western blot). In kind it is cell-based. The conditions noted are these: Primates, COS. A general note: In western blotting, separated proteins are transferred to a membrane and probed.
Assay [2] concerns T24-BAG4 human bladder carcinoma cells expressing an activated H-ras gene. As to the kind of experiment: Cell Mat Assay, T24 tumor cells. In kind it is cell-based. As to conditions: Homo sapiens, read-out: Tumor (T-24) IC50.
The test system of assay [3] is DLD-1-BAG human colon carcinoma cells expressing as activated K-ras gene. As to the kind of experiment: Cell Mat Assay, DLD-1 tumor cells. In kind it is cell-based. As to conditions: Homo sapiens, DLD-1, Mat assay.
The test system of assay [4] is SW620-BAG human colon carcinoma cells expressing an activated K-ras gene. As to the kind of experiment: Cell Mat Assay, SW620 tumor cells. In kind it is cell-based. As to conditions: Homo sapiens, SW-620, Mat assay.
The test system of assay [5] is Normal human HEPM fibroblasts. As to the kind of experiment: Cell Mat Assay, normal cell mat. The conditions noted are these: normal monolayer. In kind it is cell-based.
Another assay concerns Human tumor cells. As to the kind of experiment: Soft Agar Assay (anchorage-independent growth). In kind it is cell-based. The conditions noted are these: range over 19 tumor cell lines (K ras NIH 3T3, H ras NIH 3T3, HTB 177, HTB 173, A549, HTB 175, HTB 119, HTB 183, HPAF II, MCF-7, HBL100, Du4475, MDA MB 468, DU 145, MDA MB453, BT474, PC3, DLD I, AsPc-1), read-out: IC50 for each cell line.

Assay [6] has as its system DLD-1 (human colon carcinoma cells, ATCC # CCL 221). Put plainly: In Vivo Anti-Tumor Studies, subcutaneous DLD-1 tumors. As to conditions: Mus musculus, DLD-1, po, QID, 4 weeks, range over the listed compounds. On the set-up: species or system athymic nu/nu female mice. From the text:
Tumor cells (5 X 10^5 to 8 X 10^6) of DLD-1 (human colon carcinoma cells, ATCC # CCL 221) are innolculated subcutaneously into the flank of 5-6 week o;d athymic nu/nu female mice.

One may read the IC50 as the concentration that inhibits the measured activity by half. A word on the inhibition in vivo: it is how much of the control response was suppressed. With `NC(=O)N1CCC(CC(=O)N2CCC(C3c4ncc(Br)cc4CCc4cc(Cl)cc(Br)c43)CC2)CC1` (centres unmarked) [Example 10], the IC50 was under 25 nM in assay [1]; under 1600 nM in assay [2]; under 1600 nM in assay [3]; 3100 nM in assay [4]; over 25000 nM in assay [5]; 40 to 3000 nM with Human tumor cells. In assay [6] (10 mg/kg p.o.), this molecule registered an inhibition in vivo at 10 mg/kg of 7 to 50%. Moreover, in assay [6] (50 mg/kg p.o.), the inhibition in vivo at 50 mg/kg fell in the range of 35.4 to 83%.
